In patent US20130029858A1, “Method of Drug Screening through Quantitative Detection by Atomic Force Microscopy and Effective Protein Chips Development through Method Thereof” (NATIONAL APPLIED RESEARCH LABORATORIES, priority 2011, published 2013):

Biological target: CD28/CD80 binding (Homo sapiens, UniProt P10747)
Assay: AFM measurement of binding force between imm-CD28 on chips and afm-CD80 on probe, blocking by drug
Source text: (a) Immobilizing receptor and ligand [11]: At least one receptor is immobilized on a surface of each one of a plurality of chips and at least one ligand to the receptor is immobilized on a surface of a probe of an AFM. Therein, the chip can be extended to a micro-array chip immobilized with different kinds of receptors.
(b) Binding drug to receptor [12]: A drug is flowed through the chip to bind the drug to the receptor.
(c) Measuring binding force: The AFM is used to processing point-to-point detection for acquiring blocking effect by the drug according to the binding forces between the receptor and the ligand. If the binding force between the drug and the receptor is bigger than the binding force between the receptor and the ligand, the drug is identified as capable of breaking the bond between the receptor and the ligand, vice versa.
Take immuno-suppressive agent as an example. In FIG. 2, a receptor of T-cell membrane, CD28, is immobilized on chips, which is a protein labeled as imm-CD28 [21]. A ligand to CD28, ligand-CD80, is immobilized on a probe of an AFM, which is a receptor on immune B-cell membrane and is labeled as afm-CD80 [31]. Since the binding between CD80 and CD28 is related to human anaphylactic reaction, a small-molecule drug can be applied to block the binding between CD28 and CD80 for reducing immuno-reaction and anaphylactic reaction if the binding force between the drug and CD28 is bigger than that between CD80 and CD28.
Take an immuno-suppressive drug candidate, cynarin, as an example. The imm-CD28 [21] is immobilized on the chips and the afm-CD80 [31] is immobilized on the probe. Then the drug candidate, cynarin, is flowed through the chips to be bond with imm-CD28 [21] and separated from other components. In FIG. 3, a binding force (q1) between CD28 and CD80 on afm-CD80 [31] is great before adding cynarin. After adding the effective immuno-suppressive drug candidate 3, cynarin, the bond between CD28 and CD80 is blocked to form a very small binding force (q2). That is, q1>>q2. […]

CD28/CD80 binding, sequence (P10747 19-152 limits assumed): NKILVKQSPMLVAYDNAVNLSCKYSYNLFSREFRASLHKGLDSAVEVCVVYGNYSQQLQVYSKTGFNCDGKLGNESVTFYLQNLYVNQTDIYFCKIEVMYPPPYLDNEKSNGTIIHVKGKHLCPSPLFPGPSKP

With `O=C(/C=C/c1ccc(O)c(O)c1)O[C@@H]1C[C@@](OC(=O)/C=C/c2ccc(O)c(O)c2)(C(=O)O)C[C@@H](O)[C@@H]1O` [cynarin] as the molecule, how does the “difference between the binding forces before and after adding cynarin (q1−q2)” value (167 pN−90 pN) read?
The value was “about 77 pN”.

What about the “average binding force between CD28 and CD80 after adding cynarin (q2)” value (after adding cynarin, average of 100 positions on chip, before adding about 167 pN±14 (q1), FIG. 4B) of the same molecule?
The value was “about 90 pN”.

What about the “difference between the binding forces before and after adding cynarin, percent” value (relative to q1 167 pN) of the same molecule?
Its value is roughly 46%.
